Experiments:
Format in all cases: cell-based
[1] = tested on: CAL51 breast cancer cells; experiment: siRNA screen for Compound A sensitivity in CAL51
Source text: An siRNA library was purchased from Dharmacon. Each well contained a SMART pool of four distinct siRNA species targeting different sequences of the target transcript, as well as individual siRNA targeting components of the Shieldin complex. Each plate was supplemented with negative siCONTROL (12 wells; Dharmacon) and positive control (four wells, siPLK1, Dharmacon). RNAi screening conditions were optimized and raw CellTitre-Glo (Promega) luminescent viability readings were generated as previously described (Lord et al DNA Repair (2008) 7, 2010-2019). Compound A or vehicle (DMSO) was added 24 h after transfection at 5 μM (CAL51) or 10 μM (RPE TP53-/-BRCA1-defective) concentration in media and cells were exposed for 5 days. Statistical analysis of the siRNA screen was performed as described elsewhere (Lord et al DNA Repair (2008) 7, 2010-2019). In brief, luminescence values from CellTitre-Glo assays in Compound A and DMSO exposed cells were log2 transformed and then normalized to plate median (PM) effects. Drug Effect (DE) scores were calculated from PM normalized data using the equation: DE=(log2 PM normalized signal of siRNA in the presence of Compound A)—(log2 PM normalized signal of siRNA in the absence of Compound A). DE values were then Z-score standardized according to screen median and median absolute deviation values.
To discover genes that are synthetic lethal with Polθ inhibitors, an siRNA screen using 1280 siRNAs was performed using CAL51 breast cancer cells. The cells were transfected with siRNA SMARTPools in a 384 well plate arrayed format then, twenty-four hours later, exposed to either DMSO or Compound A. Cells were then continuously cultured in the presence of Compound A or DMSO for a further five days, at which point the viability of cells was measured using CellTitre-Glo reagent (a luminescence assay measuring cellular ATP levels). Luminescence values from each well of the 384 well plate were log2 transformed and then normalized to the median signal on each plate (to account for plate to plate variation). By comparing normalized values for each siRNA SMARTPool in DMSO and Compound A-exposed cells, the effect of each siRNA on Compound A sensitivity was calculated, being expressed as a Drug Effect (DE) Z score.

[2] = tested on: parental and REV7 KO 22Rv1 cells; experiment: Colony formation assay, 22Rv1; conditions: REV7 KO vs REV7 wild type parental 22Rv1 cells, 2 weeks
Experimental: (§1) 1 mL of cells were seeded per well in a 24-well plate in triplicate and incubated overnight at 37° C. Cells were treated with a seven-point dose response curve with a one-in-three serial dilution of compound for the timepoints listed in Table 5. For MDA-MB-436 cells media was replenished every five days.
(§2) Cells were fixed with 70% ethanol for 20 minutes at room temperature with shaking. Cells were then stained with 0.04% Crystal Violet (Sigma Aldrich) for 20 minutes at room temperature with shaking. Cells were washed 6 times with water and air-dried overnight.
(§3) Plates were imaged using a Gelcount (Oxford Optronix), and colonies were counted using parameters optimized for each cell line. 22Rv1 viability curves were generated from the colony counts alone. MDA-MB-436 and HCC1935 viability curves were generated from solubilized colonies. Colonies were solubilized using 10% acetic acid (VWR) for 30 minutes, absorbance at 595 nm was read using the Clariostar plate reader (BMG Labtech), and blank correction was applied. Relative Survival was calculated by normalization of compound treated wells to DMSO treated wells.
The effect of a DNA polymerase theta (Polθ) inhibitor (Compound A) or the PARP inhibitor olaparib on the survival of parental (REV7 wild type) or REV7 deleted (REV7 KO) 22Rv1 cells was investigated in colony formation assays (CFA—see protocol above). […]

[3] = tested on: parental and SHLD2 KO HCC1395 cells; experiment: Colony formation assay, HCC1395; conditions: SHLD2 KO vs parental HCC1395 cells, colony solubilisation protocol
Experimental: as §1, §2
as §3, with “22Rv1 viability curves were generated from the colony counts alone. MDA-MB-436 and HCC1935 viability curves were generated from solubilized colonies.” left out
(§4) The effect of a DNA polymerase theta (Pole) inhibitor (Compound A) and the PARP inhibitor olaparib on the survival of parental and SHLD2 deleted (SHLD2 KO) HCC1395 cells was investigated by colony formation assay. Briefly, each population was seeded at low density, incubated with different concentrations of the compound and the relative survival normalized to untreated cells was measured with the colony solubilisation protocol.

[4] = tested on: parental and SHLD2 KO MDA-MB-436 cells; experiment: Colony formation assay, MDA-MB-436; conditions: SHLD2 KO vs parental MDA-MB-436 cells, colony solubilization protocol
Experimental: as §1, §2
as §3, with “22Rv1 viability curves were generated from the colony counts alone. MDA-MB-436 and HCC1935 viability curves were generated from solubilized colonies.” left out
as §4, with “(Polθ)” for “(Pole)”, “MDA-MB-436” for “HCC1395”, “solubilization” for “solubilisation”

In the case of Cc1cccc(N(C)C(=O)[C@@H]2[C@H](O)CCN2c2nc(C)cc(C(F)(F)F)c2C#N)c1 [Compound A, (2S,3R)-1-(3-cyano-6-methyl-4-(trifluoromethyl)pyridin-2-yl)-3-hydroxy-N-methyl-N-(m-tolyl)pyrrolidine-2-carboxamide], the “Drug Effect (DE) Z-score” value ([1]; non-targeting siRNA Allstar control) is reported as 1.0, the “Drug Effect (DE) Z-score” value ([1]; non-targeting siRNA siCON1) is reported as 0.8 and the “Drug Effect (DE) Z-score” value ([1]; non-targeting siRNA siCON2) is reported as 1.0. For the same compound, the “Drug Effect (DE) Z-score” value ([1]; siRNA pool targeting REV7, 5 μM, 5 days, median of triplicate screens) was −2.88, the “sensitivity by relative survival (colonies)” value [2] was “significantly more sensitive” and the “sensitivity by relative survival” value [3] was “significantly more sensitive”. For the same compound, the “sensitivity by relative survival” value [4] was “significantly more sensitive”.

Source: US20220387544A1, “NOVEL THERAPEUTIC USE” (Artios Pharma Limited, priority 2019, published 2022)
